Data: ChEMBL document CHEMBL1201862, “PubChem BioAssay data set” (2004)
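Five compound concentrations were applied to cells in 96-well plates for 48 hours; endpoints were derived by simple linear interpolation of the resulting dose-response curve. GI50 marks 50% less growth.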 Calls of active or inactive are those of the source. Rule as the data show it: active = GI50 up to about 1.1 µM and inactive = higher.

Legend:
Assay in all cases: NCI tumour cell line growth inhibition, 48 h
[1] = tested on: SR
[2] = tested on: IGROV-1
[3] = tested on: CCRF-CEM
[4] = tested on: MDA-MB-231
[5] = tested on: A498
[6] = tested on: EKVX
[7] = tested on: UO-31
[8] = tested on: NCI-H460
[9] = tested on: SN12C
[10] = tested on: K562
[11] = tested on: Malme-3M
[12] = tested on: LOX IMVI
[13] = tested on: M14
[14] = tested on: U-251
[15] = tested on: BT-549
[16] = tested on: KM12
[17] = tested on: MOLT-4
[18] = tested on: HOP-92
[19] = tested on: UACC-62
[20] = tested on: A549

Measured: GI50

CCCCN1CSC(=S)N(Cc2ccccc2)C1
inactive: [1] 31.7 µM | [2] 82.2 µM | [3] 4.47 µM | [4] > 100 µM | [5] > 62.1 µM | [6] 30 µM | [7] > 100 µM | [8] 31.9 µM | [9] > 71 µM | [10] 31.8 µM | [11] 36.8 µM | [12] 36.9 µM | [13] > 82.8 µM | [14] 44.6 µM | [15] > 84.9 µM | [16] 31.1 µM | [17] 25.6 µM | [18] > 75.9 µM | [19] 41.2 µM | [20] 48 µM
